Results published in patent publication US20050009759A1 (priority 2001, published 2005).
In brackets after ≈: the same amount, converted by molar mass. Where two headings read alike, the source gives them in different places.

Tests used:
[1] = system: L1210 cells; assay: In vitro cytotoxicity, microculture tetrazolium assay (MTA); type: cell-based; conditions: Mus musculus
Description: Cytotoxicity was tested against L1210 (mouse leukemic cell line) cells using the MTA assay.
L1210 cells were cultivated in RPMI 1640 medium (Gibco) supplemented with 10% fetal calf serum, 2 mM L-glutaine, 100 units/mL penicillin, 100 µg/mL streptomycin, and 10 mM HEPES buffer (pH=7.4). Cytotoxicity was measured by the microculture tetrazolium assay (MTA). Cells were exposed to graded concentrations of drug (nine serial dilutions in triplicate) for 48 h. Results are expressed as IC50, the concentration which reduced by 50% the optical density of treated cells with respect to the optical density of untreated controls.

[2] = Solubility in water; type: physicochemical; conditions: for solubility: water, in water / aqueous solvents
[3] = target: E. coli β-D-glucuronidase (Escherichia coli, UniProt P05804); assay: Enzymatic cleavage by E. coli β-D-glucuronidase (kinetics of drug release, HPLC); type: biochemical; conditions: E. coli β-D-glucuronidase in phosphate buffer; 500 μg/mL prodrug, 20 μg/mL E. coli β-D-glucuronidase, phosphate buffer pH 7.2, 37° C.
Description: Prodrug 1a (500 μg/mp) was incubated with E. coli β-D-glucuronidase (20 μ/mL). Aliquot samples were analysed by IPLC at different times (FIG. 1: Enzymatic cleavage of prodrug 1a).
(§1) Good separation in a short delay was obtained with a reversed-phase Phenyl analytical column (Spherisorb 250×4,6) using isocratic conditions (1 mL/min) of 60% phosphate buffer (0.02 M, pH 3) and 40% acetonitrile with UV detection at 254 nm. Using these conditions the retention time of etoposide, prodrug, and cyclized spacer were 4.9, 3.4, 5.8. min., respectively.
Hydrolysis was investigated by incubating a solution of 500 μg/mL of prodrug 3 and 20 μg/mL of E. coli β-D-glucuronidase in 0.02 M phosphate buffer (pH 7.2) at 37° C. Aliquots (100 μl) were taken at various times and analyzed by HPLC after dilution with 300 μl of eluent.

[4] = Stability in phosphate buffer solution followed by HPLC; type: physicochemical; conditions: phosphate buffer pH 7 (0.02 M, pH 7.2), 37° C.
Description: The stability of 1a was followed by HPLC measurements in buffer solution at pH 7 for 24 hours. More than 90% of the prodrug was recovered after that time, meaning that the prodrug 1a is stable in vitro.
as §1
A solution of […] of prodrug 1a in 0.02 M phosphate buffer (pH 7.2) was incubated for various times at 37° C. Aliquots (100 μL) were taken at various times and analyzed by HPLC after dilution with eluent (300 μL).

Sequence of E. coli β-D-glucuronidase (P05804 whole entry): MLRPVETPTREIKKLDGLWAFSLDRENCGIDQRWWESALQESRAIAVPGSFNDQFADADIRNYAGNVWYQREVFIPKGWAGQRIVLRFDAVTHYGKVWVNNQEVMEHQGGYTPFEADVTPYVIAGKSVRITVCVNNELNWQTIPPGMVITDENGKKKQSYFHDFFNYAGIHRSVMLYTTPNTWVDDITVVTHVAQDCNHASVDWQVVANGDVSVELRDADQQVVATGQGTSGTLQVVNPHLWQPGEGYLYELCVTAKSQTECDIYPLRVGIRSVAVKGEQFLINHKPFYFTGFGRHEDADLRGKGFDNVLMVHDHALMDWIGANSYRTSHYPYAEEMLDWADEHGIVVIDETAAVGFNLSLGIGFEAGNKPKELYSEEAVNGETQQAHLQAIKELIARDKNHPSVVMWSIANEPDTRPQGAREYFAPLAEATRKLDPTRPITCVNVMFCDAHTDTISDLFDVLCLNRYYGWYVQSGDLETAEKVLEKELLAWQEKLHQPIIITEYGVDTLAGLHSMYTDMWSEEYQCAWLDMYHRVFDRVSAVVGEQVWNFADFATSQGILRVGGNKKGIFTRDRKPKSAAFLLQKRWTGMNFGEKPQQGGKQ

Compound: COc1cc([C@@H]2c3cc4c(cc3[C@@H](O[C@@H]3O[C@@H]5CO[C@@H](C)O[C@H]5[C@H](O)[C@H]3O)[C@H]3COC(=O)[C@H]23)OCO4)cc(OC)c1O [etoposide, reference compound]
- IC50 ([1]; L1210 cell line, 48 h exposure, without enzyme, read-out: IC50): 834 nM
- solubility [2]: 0.1 mg/mL (≈ 0.17 mM)

Compound: COc1cc([C@@H]2c3cc4c(cc3C(OC3OC5COC(C)O[C@H]5C(O)[C@@H]3O)[C@H]3COC(=O)[C@H]23)OCO4)cc(OC)c1OC(=O)N(C)c1cc([N+](=O)[O-])ccc1O[C@@H]1OC(C(=O)O)[C@@H](O)C(O)C1O (stereo partly drawn) [prodrug 1a]
- IC50 ([1]; L1210, 48 h): 50200 nM
- IC50 ([1]; L1210, read-out: IC50 after hydrolysis by β-glucuronidase): 930 nM
- fold more soluble than the corresponding drug ([2]; in water, comparable conditions, versus etoposide): approximately 200 fold
- solubility [2]: ~20 mg/mL (≈ 20.9 mM)
- half-life at 500 μg/mL [3]: < 25 min
- prodrug recovered/remaining after 24 hours [4]: More than 90%
- melting point: 186 °C
